Results: PubChem BioAssay (NCI)
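Values below derive from 48-hour exposures of cells grown in 96-well plates, with endpoints linearly interpolated between the two concentrations bracketing the appropriate inhibition level. At the GI50, growth is halved. TGI marks complete inhibition of growth.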

Experiments:
Assay in all cases: NCI tumour cell line growth inhibition, 48 h
HOP-92 NSCLC = test system: HOP-92 NSCLC
SNB-78 CNS = test system: SNB-78 CNS
DLD-1 colon = test system: DLD-1 colon
M19-MEL melanoma = test system: M19-MEL melanoma
786-0 renal = test system: 786-0 renal
HT29 colon = test system: HT29 colon
HCT-116 colon = test system: HCT-116 colon
DMS 273 small cell lung = test system: DMS 273 small cell lung
NCI/ADR-RES ovarian = test system: NCI/ADR-RES ovarian
MDA-MB-435 = test system: MDA-MB-435

CCC[CH2][Sn]1([CH2]CCC)[O]C(=O)C(C(C)C)N=Cc2ccccc2[O]1 (centres undefined)
GI50 (HOP-92 NSCLC): 0.131 µM | TGI (HOP-92 NSCLC): 0.442 µM | GI50 (SNB-78 CNS): 0.227 µM | TGI (SNB-78 CNS): 1.23 µM | GI50 (DLD-1 colon): 0.499 µM | TGI (DLD-1 colon): > 100 µM | GI50 (M19-MEL melanoma): 0.232 µM | TGI (M19-MEL melanoma): 1.08 µM | GI50 (786-0 renal): 0.307 µM | TGI (786-0 renal): 1.15 µM | GI50 (HT29 colon): 0.907 µM | TGI (HT29 colon): 2.21 µM | GI50 (HCT-116 colon): 0.547 µM | TGI (HCT-116 colon): 1.78 µM | GI50 (DMS 273 small cell lung): 0.73 µM | TGI (DMS 273 small cell lung): 2.04 µM

O=C(O)CP(=S)(S)c1ccccc1 (centres undefined)
TGI (HOP-92 NSCLC): > 100 µM | TGI (SNB-78 CNS): > 100 µM | TGI (DLD-1 colon): > 100 µM | TGI (M19-MEL melanoma): > 100 µM | TGI (786-0 renal): > 100 µM | TGI (HT29 colon): > 100 µM | TGI (DMS 273 small cell lung): > 100 µM

Cc1cccc(NC(=O)C(=O)Cc2nc3ccccc3[nH]c2=O)c1C
TGI (HOP-92 NSCLC): > 100 µM | TGI (SNB-78 CNS): > 100 µM | TGI (DLD-1 colon): > 100 µM | TGI (M19-MEL melanoma): > 100 µM | TGI (786-0 renal): > 100 µM | TGI (HT29 colon): > 100 µM | TGI (HCT-116 colon): > 100 µM

CN(C)CC/C(=N\Nc1c(Cl)cccc1Cl)c1ccccc1
TGI (SNB-78 CNS): 62.1 µM | TGI (DLD-1 colon): > 100 µM | TGI (M19-MEL melanoma): 33.6 µM | TGI (786-0 renal): 31.3 µM | TGI (HT29 colon): 29.3 µM | TGI (HCT-116 colon): 29.1 µM | TGI (DMS 273 small cell lung): 31.8 µM

CC(=O)[CH-]C(=O)c1ccccc1.CC(=O)[CH-]C(=O)c1ccccc1.O=C([O-])c1ccc([O-])cc1.O=C([O-])c1ccc([O-])cc1.[Ti+4]
GI50 (DLD-1 colon): > 100 µM | TGI (DLD-1 colon): > 100 µM | GI50 (786-0 renal): 54.4 µM | TGI (786-0 renal): > 100 µM | GI50 (HT29 colon): 51.2 µM | TGI (HT29 colon): > 100 µM | GI50 (HCT-116 colon): 41.4 µM | TGI (HCT-116 colon): > 100 µM

COC(=O)c1cccc2cccc(C(=O)Nc3ccc(C)cc3C)c12
TGI (HOP-92 NSCLC): > 100 µM | TGI (SNB-78 CNS): > 100 µM | TGI (DLD-1 colon): > 100 µM | TGI (M19-MEL melanoma): > 100 µM | TGI (786-0 renal): > 100 µM | TGI (HT29 colon): > 100 µM | TGI (HCT-116 colon): > 100 µM | TGI (DMS 273 small cell lung): > 100 µM

COC(=O)c1cc(Br)c(Br)n1C
TGI (HOP-92 NSCLC): > 100 µM | TGI (SNB-78 CNS): > 100 µM | TGI (DLD-1 colon): > 100 µM | TGI (M19-MEL melanoma): > 100 µM | TGI (786-0 renal): > 100 µM | TGI (HT29 colon): > 100 µM | TGI (HCT-116 colon): > 100 µM | TGI (DMS 273 small cell lung): > 100 µM

CC1=C2C(=O)O[C@@H](c3ccoc3)[C@]2(C)CCC1
TGI (HOP-92 NSCLC): > 100 µM | TGI (SNB-78 CNS): > 100 µM | TGI (DLD-1 colon): > 100 µM | TGI (M19-MEL melanoma): > 100 µM | TGI (786-0 renal): > 100 µM | TGI (HT29 colon): > 100 µM | TGI (HCT-116 colon): > 100 µM

COc1ccc2c(c1)CCC1C3(CCCC21C)OCCO3 (centres undefined)
TGI (HOP-92 NSCLC): 35.3 µM | TGI (SNB-78 CNS): 73.9 µM | TGI (DLD-1 colon): 34.5 µM | TGI (M19-MEL melanoma): 37.7 µM | TGI (786-0 renal): 38.1 µM | TGI (HT29 colon): 33.5 µM | TGI (HCT-116 colon): 30.5 µM | TGI (DMS 273 small cell lung): 40.3 µM

Cc1ccc2nc3c(C(=O)NCCN(C)C)cccc3nc2c1
TGI (HOP-92 NSCLC): > 22.4 µM | TGI (SNB-78 CNS): 41.1 µM | TGI (M19-MEL melanoma): 7.29 µM | TGI (786-0 renal): > 77.2 µM | TGI (HT29 colon): 15.4 µM | TGI (HCT-116 colon): 12 µM | TGI (DMS 273 small cell lung): > 100 µM

CC[O-].CC[O-].O=C1c2ccccc2C(=O)c2c(O)ccc([O-])c21.O=C1c2ccccc2C(=O)c2c(O)ccc([O-])c21.[Ti+4]
TGI (SNB-78 CNS): > 100 µM | TGI (DLD-1 colon): > 100 µM | TGI (M19-MEL melanoma): 73.4 µM | TGI (786-0 renal): > 100 µM | TGI (HT29 colon): > 100 µM | TGI (HCT-116 colon): > 100 µM | TGI (DMS 273 small cell lung): > 100 µM

Cc1cc(C)nc(NS(=O)(=O)c2ccc(Nc3c4ccccc4nc4c(C(=O)Nc5ccc(S(=O)(=O)Nc6cc(C)on6)cc5)cccc34)cc2)n1
TGI (HOP-92 NSCLC): 39.5 µM | TGI (SNB-78 CNS): > 100 µM | TGI (DLD-1 colon): 78.8 µM | TGI (M19-MEL melanoma): 47.2 µM | TGI (786-0 renal): 34.8 µM | TGI (HT29 colon): 35.5 µM | TGI (HCT-116 colon): 31.2 µM | TGI (DMS 273 small cell lung): 55.8 µM

O=C(O)CN(c1ccccc1)S(=O)(=O)c1ccccc1[N+](=O)[O-]
TGI (HOP-92 NSCLC): > 100 µM | TGI (DLD-1 colon): > 100 µM | TGI (M19-MEL melanoma): > 100 µM | TGI (786-0 renal): > 100 µM | TGI (HT29 colon): > 100 µM | TGI (DMS 273 small cell lung): > 100 µM

COc1ccc(C(C)c2cc3c(cc2OC)OCO3)cc1 (centres undefined)
TGI (HOP-92 NSCLC): 36 µM | TGI (SNB-78 CNS): > 31.6 µM | TGI (DLD-1 colon): > 100 µM | TGI (M19-MEL melanoma): > 100 µM | TGI (786-0 renal): > 53.4 µM | TGI (NCI/ADR-RES ovarian): 28.2 µM | TGI (MDA-MB-435): 0.214 µM | TGI (HT29 colon): 0.43 µM | TGI (HCT-116 colon): 46.3 µM | TGI (DMS 273 small cell lung): 1.29 µM

N#Cc1nc(C2OC(COC(=O)c3ccccc3)C(OC(=O)c3ccccc3)C2OC(=O)c2ccccc2)oc1N (centres undefined)
TGI (HOP-92 NSCLC): > 100 µM | TGI (SNB-78 CNS): > 100 µM | TGI (DLD-1 colon): > 100 µM | TGI (M19-MEL melanoma): > 100 µM | TGI (786-0 renal): > 100 µM | TGI (HT29 colon): > 100 µM | TGI (HCT-116 colon): > 100 µM | TGI (DMS 273 small cell lung): > 100 µM

Cc1ccccc1N(CCC#N)C1=NN(C(=O)CC(=O)Nc2ccccc2)C(c2ccccc2)C1 (centres undefined)
TGI (HOP-92 NSCLC): > 100 µM | TGI (SNB-78 CNS): > 100 µM | TGI (DLD-1 colon): > 100 µM | TGI (M19-MEL melanoma): > 100 µM | TGI (786-0 renal): > 100 µM | TGI (HT29 colon): > 100 µM | TGI (HCT-116 colon): > 100 µM | TGI (DMS 273 small cell lung): > 100 µM

CC(C)(C)OC(=O)Cc1ccc2c(ccn2Cc2ccccc2)c1
TGI (HOP-92 NSCLC): > 100 µM | TGI (SNB-78 CNS): > 100 µM | TGI (DLD-1 colon): > 100 µM | TGI (M19-MEL melanoma): > 100 µM | TGI (786-0 renal): > 100 µM | TGI (HT29 colon): 36.4 µM | TGI (HCT-116 colon): > 100 µM | TGI (DMS 273 small cell lung): > 100 µM

C=CCCCCCCCCC(=O)NS(=O)(=O)c1ccccc1
TGI (HOP-92 NSCLC): > 100 µM | TGI (SNB-78 CNS): > 100 µM | TGI (DLD-1 colon): > 100 µM | TGI (M19-MEL melanoma): > 100 µM | TGI (786-0 renal): > 100 µM | TGI (HT29 colon): > 100 µM | TGI (HCT-116 colon): > 100 µM | TGI (DMS 273 small cell lung): > 100 µM

CC(C)=CCC/C(=C/CC/C(C)=C/CCc1ccoc1)C(=O)O
TGI (HOP-92 NSCLC): > 100 µM | TGI (SNB-78 CNS): > 100 µM | TGI (DLD-1 colon): > 100 µM | TGI (M19-MEL melanoma): > 100 µM | TGI (786-0 renal): > 100 µM | TGI (HT29 colon): > 100 µM | TGI (HCT-116 colon): > 100 µM

CCCCCCCCCCCCCC1CCC(CC)N1 (centres undefined)
TGI (HOP-92 NSCLC): 31.3 µM | TGI (SNB-78 CNS): 30.4 µM | TGI (DLD-1 colon): 28.9 µM | TGI (M19-MEL melanoma): 10.6 µM | TGI (786-0 renal): 31.5 µM | TGI (HT29 colon): 15.1 µM | TGI (HCT-116 colon): 29.6 µM | TGI (DMS 273 small cell lung): 29.1 µM

Cc1ccc(N(C(=O)CC(=O)NN)C(=O)c2ccccc2Cl)cc1
TGI (HOP-92 NSCLC): > 100 µM | TGI (SNB-78 CNS): > 100 µM | TGI (DLD-1 colon): > 100 µM | TGI (M19-MEL melanoma): > 100 µM | TGI (786-0 renal): > 100 µM | TGI (HT29 colon): > 100 µM | TGI (HCT-116 colon): > 100 µM | TGI (DMS 273 small cell lung): > 100 µM
